Data taken from ChEMBL document CHEMBL1133260, “Synthesis and evaluation of aza HUN-7293” (Bioorg Med Chem Lett, 2000).
*1 amine or outer side, *2 acyl side, *3 side chain or, on linkers, in order; H or OH if unused. Where a SMILES comes first, the peptide text is derived from it. [ ]: non-standard residue; d: D form. NMeTrp(1-OMe) = CN[C@@H](Cc1cn(OC)c2ccccc12)C(=O)O; Butanoyl(2R-oxy,4-CN) = N#CCC[C@@H](O)C(=O)O; X1 = CCCC[C@@H](C)C[C@H](N[*:1])C(=O)[*:2]; NMeL = CN[C@@H](CC(C)C)C(=O)O; NMeA = CN[C@@H](C)C(=O)O

What was measured:
Format in all cases: functional, cell-based
HMEC [1] = assay: The compound (derived from natural HUN-7293) was tested for the ability to inhibit inducible cell adhesion molecule expression (ICAM-1) in primary human micro vascular cell line (HMEC-1)
HMEC [2] = assay: The compound (derived from natural HUN-7293) was tested for the ability to inhibit inducible cell adhesion molecule expression (VCAM-1) in primary human micro vascular cell line (HMEC-1)
HMEC [3] = assay: The compound (synthetic) was tested for the ability to inhibit inducible cell adhesion molecule expression (VCAM-1) in primary human micro vascular cell line (HMEC-1)
HUVEC [4] = assay: The compound (derived from natural HUN-7293) was tested for the ability to inhibit inducible cell adhesion molecule expression (E-selectin) in primary human endothelial cell line (HUVEC)
HUVEC [5] = assay: The compound (derived from natural HUN-7293) was tested for the ability to inhibit inducible cell adhesion molecule expression (ICAM-1) in primary human endothelial cell line (HUVEC)
HUVEC [6] = assay: The compound (derived from natural HUN-7293) was tested for the ability to inhibit inducible cell adhesion molecule expression (VCAM-1) in primary human endothelial cell line (HUVEC)
HUVEC [7] = assay: The compound (synthetic) was tested for the ability to inhibit inducible cell adhesion molecule expression (E-selectin) in primary human endothelial cell line (HUVEC)
HUVEC [8] = assay: The compound (synthetic) was tested for the ability to inhibit inducible cell adhesion molecule expression (ICAM-1) in primary human endothelial cell line (HUVEC)
HUVEC [9] = assay: The compound (synthetic) was tested for the ability to inhibit inducible cell adhesion molecule expression (VCAM-1) in primary human endothelial cell line (HUVEC)
HMEC [10] = assay: The compound was tested for the ability to inhibit inducible cell adhesion molecule expression (ICAM-1) in primary human micro vascular cell line (HMEC-1)
HMEC [11] = assay: The compound was tested for the ability to inhibit inducible cell adhesion molecule expression (VCAM-1) in primary human micro vascular cell line (HMEC-1)
HUVEC [12] = assay: The compound was tested for the ability to inhibit inducible cell adhesion molecule expression (E-selectin) in primary human endothelial cell line (HUVEC)
HUVEC [13] = assay: The compound was tested for the ability to inhibit inducible cell adhesion molecule expression (ICAM-1) in primary human endothelial cell line (HUVEC)
HUVEC [14] = assay: The compound was tested for the ability to inhibit inducible cell adhesion molecule expression (VCAM-1) in primary human endothelial cell line (HUVEC)

Row | IC50 (HMEC [1]) [nM] | IC50 (HMEC [2]) [nM] | IC50 (HMEC [3]) [nM] | IC50 (HMEC [10]) [nM] | IC50 (HMEC [11]) [nM] | Structure (SMILES) | IC50 (HUVEC [4]) [nM] | IC50 (HUVEC [5]) [nM] | IC50 (HUVEC [6]) [nM] | IC50 (HUVEC [7]) [nM] | IC50 (HUVEC [8]) [nM] | IC50 (HUVEC [9]) [nM] | IC50 (HUVEC [12]) [nM] | IC50 (HUVEC [13]) [nM] | IC50 (HUVEC [14]) [nM]
1 | 540 | 22 | 58 | – | – | CCCC[C@@H](C)C[C@@H]1NC(=O)[C@H](Cc2cn(OC)c3ccccc23)N(C)C(=O)[C@H](CC(C)C)NC(=O)[C@H](CC(C)C)N(C)C(=O)[C@H](C[C@H](C)CCCC)NC(=O)[C@@H](CCC#N)NC(=O)[C@H](C)N(C)C1=O | 540 | 540 | 33 | 1000 | 950 | 64 | – | – | –
2 | – | – | – | > 3000 | 550 | CCCC[C@@H](C)C[C@@H]1NC(=O)[C@@H](CCC#N)NC(=O)[C@H](C)N(C)C(=O)[C@H](C[C@H](C)CCCC)NC(=O)[C@H](Cc2cn(OC)c3ccccc23)N(C)C(=O)[C@H](CC(C)C)NC(=O)[C@@H](CC(C)C)N(C)C1=O | – | – | – | – | – | – | > 10000 | > 3000 | 560
3 | – | – | – | 24 | 1 | CCCC[C@@H](C)C[C@@H]1NC(=O)[C@H](Cc2cn(OC)c3ccccc23)N(C)C(=O)[C@H](CC(C)C)NC(=O)[C@H](CC(C)C)N(C)C(=O)[C@H](C[C@H](C)CCCC)NC(=O)[C@@H](CCC#N)OC(=O)[C@H](C)N(C)C1=O (cyclo(L[NMeTrp(1-OMe)][X1][NMeA][Butanoyl(2R-oxy,4-CN)][X1][NMeL])) | – | – | – | – | – | – | 44 | 26 | 3
